Experimental data as given in the NIST ThermoML archive (doi:10.1016/j.jct.2012.08.026).
± gives the expanded uncertainty stated by the source.

Conditions: 308.15 K, 101.33 kPa, Liquid; for viscosity: Capillary tube (Ostwald / Ubbelohde) method; for speed of sound: Pulse-echo method; for mass density: Vibrating tube method

Which viscosity does the source give for `CCC(O)CO` (stereo not given) [1,2-butanediol] here?
Its viscosity is 30.29 ± 0.56 mPa·s.

And the speed of sound?
Its speed of sound is 1422.6 ± 3.7 m/s.

What about the mass density of the same molecule?
Its mass density is 988.25 ± 1.1 kg/m3.

For `CC(O)CCO` (stereo not given) [1,3-butanediol], which viscosity is on record?
Its viscosity is 54.24 ± 1.1 mPa·s.

And the speed of sound?
Its speed of sound is 1496 ± 3.2 m/s.

And the mass density?
Its mass density is 991.28 ± 0.75 kg/m3.

With `OCCCCO` [1,4-butanediol] as the molecule, how does the viscosity read?
Its viscosity is 47.38 ± 0.94 mPa·s.

And the speed of sound?
Its speed of sound is 1577.8 ± 3.2 m/s.

What about the mass density of the same molecule?
The mass density was 1003.95 ± 0.76 kg/m3.

With `CC(O)C(C)O` (stereo not given) [2,3-butanediol] as the molecule, how does the viscosity read?
The viscosity was 51.38 ± 1.1 mPa·s.

What about the speed of sound of the same molecule?
The speed of sound was 1456.6 ± 3.7 m/s.

What about the mass density of the same molecule?
Its mass density is 990.72 ± 1.1 kg/m3.

What does the source list for `O=C1CCCN1` [2-pyrrolidinone]?
viscosity: 8.922 ± 0.095 mPa·s; speed of sound: 1600 ± 3.3 m/s; mass density: 1097.14 ± 0.85 kg/m3
